Literature values, collected in PMC9762682, “Tocotrienols: Exciting Biological and Pharmacological Properties of Tocotrienols and Naturally Occurring Compounds, Part II” (Annals of clinical case reports, 2022).
Where two headings read alike, the source gives them in different places. Marks after values point to notes of the source that are not given here. Values belong to the compound of their own block, whether it stands above or below them.

Columns and labels:
Prostate cancer cells = tested on: Prostate cancer cells; set-up: method as in PMID 29606130; value at effective dose: scale not given here;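 as to IC50: anti-proliferation of cancer cells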
Hela cells = tested on: Hela cells; set-up: method as in PMID 29606130; value at effective dose: unit not given here;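 as to IC50: anti-proliferation of cancer cells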
TNF-α [1] = conditions: LPS-induced macrophages of PPAR-α knockout female mice
TNF-α [2] = conditions: LPS-induced macrophages of wild type (C57BL/6) control group
Melanoma cells = tested on: Melanoma cells; set-up: method as in PMID 29606130
Breast cancer cells = tested on: Breast cancer cells; set-up: method as in PMID 29606130; value at effective dose: unit not given here;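 as to IC50: anti-proliferation of cancer cells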
Lung cancer cells = tested on: Lung cancer cells; set-up: method as in PMID 29606130; value at effective dose: unit not given here
B-Lymphocyte cells = tested on: B-Lymphocyte cells; set-up: method as in PMID 29606130; value at effective dose: unit not given here;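 as to IC50: anti-proliferation of cancer cells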
Pancreas cancer cells = tested on: Pancreas cancer cells; set-up: method as in PMID 29606130; value at effective dose: unit not given here
Liver cancer cells = tested on: Liver cancer cells; set-up: method as in PMID 29606130; value at effective dose: unit not given here
T-cells (Jurkat) = tested on: T-cells (Jurkat); set-up: method as in PMID 29606130; value at effective dose: unit not given here
[3] = set-up: method as in ref 16 = [16]; PMID 27493840; doi:10.4172/2155-9880.1000434; 16. Qureshi AA , Khan DA , Silswal N , Saleem S , Qureshi N . Evaluation of pharmacokinetics and bioavailability of higher doses of δ-tocotrienol in healthy fed humans . J Clin Exp Cardiol . 2016; 7
[4] = set-up: method as in ref 14 = [14]; PMID 27493840; doi:10.4172/2155-9880.1000434; 14. Qureshi AA , Khan DA , Saleem S , Silswal N , Trias AM , Tan B , Pharmacokinetics and bioavailability of Annatto δ-tocotrienol in healthy fed subjects . J Clin Exp Cardiol . 2015; 6 : 11 . 10.417; conditions: for time of appearance in the plasma: after δ-tocotrienol administration to well-fed subjects; for Elimination of Half-life time (t1/2) / Elimination rate constant (ke) / Plasma Peak Concentration (Cmax) / Time to achieve plasma peak (Tmax): healthy fed subjects
[5] = tested on: α-Tocopherol Transfer Protein (α-TTP); set-up: method as in PMID 11271854, PMID 8632210
[6] = 0 Hr., single dose 750 mg δ-tocotrienol
[7] = 0 Hr., single dose 1000 mg δ-tocotrienol
[8] = 1 hr., single dose 750 mg δ-tocotrienol
[9] = 1 hr., single dose 1000 mg δ-tocotrienol
[10] = 2 hr., single dose 750 mg δ-tocotrienol
[11] = 2 hr., single dose 1000 mg δ-tocotrienol
[12] = 4 hr., single dose 750 mg δ-tocotrienol
[13] = 4 hr., single dose 1000 mg δ-tocotrienol
[14] = 6 hr., single dose 750 mg δ-tocotrienol
[15] = 6 hr., single dose 1000 mg δ-tocotrienol
[16] = 8 hr., single dose 750 mg δ-tocotrienol
[17] = 8 hr., single dose 1000 mg δ-tocotrienol
[18] = single dose 1000 mg δ-tocotrienol
[19] = plasma tocol after single 125 mg δ-tocotrienol dose
[20] = plasma tocol after single 250 mg δ-tocotrienol dose
[21] = plasma tocol after single 500 mg δ-tocotrienol dose
[22] = plasma tocol after single dose 750 mg δ-tocotrienol
[23] = plasma tocol after single dose 1000 mg δ-tocotrienol

SMILES: O=c1c(O)c(-c2ccc(O)c(O)c2)oc2cc(O)cc(O)c12 [Quercetin]
- IC50 (Prostate cancer cells): 10 µM
- percentage of control at IC50 dose (Prostate cancer cells): 48%
- effective dose (Prostate cancer cells; 48 h): 20 µM
- percentage of control at effective dose (Prostate cancer cells; 48 h): 17%
- value at effective dose (Prostate cancer cells; 48 h): 7.3 ± 1.2
- IC50 (Hela cells): 10 µM
- percentage of control at IC50 dose (Hela cells): 51%
- effective dose (Hela cells; 48 h): 40 µM
- percentage of control at effective dose (Hela cells; 48 h): 38%
- value at effective dose (Hela cells; 48 h): 21.3 ± 1.5
- effect on secretion of TNF-α (TNF-α [1]): activation
- effect on secretion of TNF-α (TNF-α [2]): inhibition
- IC50 (Melanoma cells): 10 µM
- effective dose (Melanoma cells): 40 µM
- percentage of control at IC50 dose (Melanoma cells): 54%
- percentage of control at effective dose (Melanoma cells): 21%
- IC50 (Breast cancer cells): 10 µM
- effective dose (Breast cancer cells): 20 µM
- percentage of control at IC50 dose (Breast cancer cells): 39%
- percentage of control at effective dose (Breast cancer cells): 27%
- value at effective dose (Breast cancer cells): 5.7 ± 0.6
- IC50 (Lung cancer cells): 10 µM
- effective dose (Lung cancer cells): 20 µM
- percentage of control at IC50 dose (Lung cancer cells): 45%
- percentage of control at effective dose (Lung cancer cells): 36%
- value at effective dose (Lung cancer cells): 11.7 ± 1.5
- IC50 (B-Lymphocyte cells): 10 µM
- effective dose (B-Lymphocyte cells): 10 µM
- percentage of control at IC50 dose (B-Lymphocyte cells): 29%
- percentage of control at effective dose (B-Lymphocyte cells): 29%
- value at effective dose (B-Lymphocyte cells): 8.0 ± 3.0
- IC50 (Pancreas cancer cells): 40 µM
- percentage of control at IC50 dose (Pancreas cancer cells): 45%
- effective dose (Pancreas cancer cells; 48 h): 40 µM
- percentage of control at effective dose (Pancreas cancer cells; 48 h): 26%
- value at effective dose (Pancreas cancer cells; 48 h): 11.7 ± 0.6
- IC50 (Liver cancer cells): 20 µM
- percentage of control at IC50 dose (Liver cancer cells): 32%
- effective dose (Liver cancer cells; 48 h): 40 µM
- percentage of control at effective dose (Liver cancer cells; 48 h): 29%
- value at effective dose (Liver cancer cells; 48 h): 24.0 ± 2.0
- IC50 (T-cells (Jurkat)): 10 µM
- effective dose (T-cells (Jurkat)): 40 µM
- percentage of control at IC50 dose (T-cells (Jurkat)): 45%
- percentage of control at effective dose (T-cells (Jurkat)): 81%
- value at effective dose (T-cells (Jurkat)): 409.3 ± 6.4

- plasma tocol level [3, 6]: 1644 ± 59 ng/mL
- plasma tocol level [3, 7]: 1817 ± 80 ng/mL
- Tmax ([3]; 750 mg and 1000 mg doses of δ-tocotrienol): 6 h
- plasma tocol level [3, 8]: 2080 ± 68 ng/mL
- plasma tocol level [3, 9]: 2025 ± 66 ng/mL
- plasma tocol level [3, 10]: 2002 ± 91 ng/mL
- plasma tocol level [3, 11]: 2115 ± 92 ng/mL
- plasma tocol level [3, 12]: 2231 ± 35 ng/mL
- plasma tocol level [3, 13]: 2228 ± 22 ng/mL
- plasma tocol level [3, 14]: 2754 ± 84 ng/mL
- plasma tocol level [3, 15]: 2915 ± 35 ng/mL
- plasma tocol level [3, 16]: 2406 ± 51 ng/mL
- plasma tocol level [3, 17]: 2139 ± 61 ng/mL
- Total tocols (sum of 0-8 h) [3, 18]: 13239 ng/mL
- time of appearance in the plasma [4]: > 2 h
- Elimination of Half-life time (t1/2) [4, 19]: 4.99 ± 069^a h
- Elimination rate constant (ke) [4, 19]: 0.237 ± 0.217^a h-1
- Plasma Peak Concentration (Cmax) [4, 19]: 1822.00 ± 48.24^a ng/mL
- Time to achieve plasma peak (Tmax) [4, 19]: 6.00 h
- Elimination of Half-life time (t1/2) [4, 20]: 4.91 ± 0.84^a h
- Elimination rate constant (ke) [4, 20]: 0.084 ± 0.008^a,b h-1
- Plasma Peak Concentration (Cmax) [4, 20]: 1931.00 ± 92.54^b ng/mL
- Time to achieve plasma peak (Tmax) [4, 20]: 6.00 h
- Elimination of Half-life time (t1/2) [4, 21]: 3.58 ± 0.67^a h
- Elimination rate constant (ke) [4, 21]: 0.081 ± 0.006^b h-1
- Plasma Peak Concentration (Cmax) [4, 21]: 2188 ± 147.61^c ng/mL
- Time to achieve plasma peak (Tmax) [4, 21]: 5.46 ± 0.93 h
SMILES: Cc1c(C)c2c(c(C)c1O)CC[C@@](C)(CCC[C@H](C)CCC[C@H](C)CCCC(C)C)O2 [α-Tocopherol]
- α-TTP mediated secretion from the liver into the circulatory system (affinity with α-TTP) [5]: 100%

- plasma tocol level [3, 6]: 241 ± 16 ng/mL
- plasma tocol level [3, 7]: 292 ± 39 ng/mL
- plasma tocol level [3, 8]: 268 ± 13 ng/mL
- plasma tocol level [3, 9]: 653 ± 42 ng/mL
- plasma tocol level [3, 10]: 278 ± 7 ng/mL
- plasma tocol level [3, 11]: 807 ± 49 ng/mL
- plasma tocol level [3, 12]: 293 ± 11 ng/mL
- plasma tocol level [3, 13]: 1125 ± 35 ng/mL
- plasma tocol level [3, 14]: 223 ± 5 ng/mL
- plasma tocol level [3, 15]: 375 ± 49 ng/mL
- plasma tocol level [3, 16]: 86 ± 16 ng/mL
- plasma tocol level [3, 17]: 309 ± 17 ng/mL
- Elimination of Half-life time (t1/2) [3, 22]: 2.21 ± 0.18^a h
- Elimination rate constant (ke) [3, 22]: 0.315 ± 0.188^a h-1
- Elimination of Half-life time (t1/2) [3, 23]: 2.15 ± 0.13^b h
- Time to achieve plasma peak (Tmax) [3, 23]: 4.00^a h
- Total tocols (sum of 0-8 h) ([3]; single dose 750 mg δ-tocotrienol): 1389 ng/mL
- Total tocols (sum of 0-8 h) [3, 18]: 3561 ng/mL
- time of appearance in the plasma [4]: > 2 h
- Elimination of Half-life time (t1/2) [4, 19]: 2.62 ± 0.81^a h
- Elimination rate constant (ke) [4, 19]: 1.234 ± 0.211^a h-1
- Plasma Peak Concentration (Cmax) [4, 19]: 139.91 ± 11.03^a ng/mL
- Time to achieve plasma peak (Tmax) [4, 19]: 2.73 ± 0.65 h
- Elimination of Half-life time (t1/2) [4, 20]: 2.89 ± 0.84^a h
- Elimination rate constant (ke) [4, 20]: 0.201 ± 0.050^b h-1
- Plasma Peak Concentration (Cmax) [4, 20]: 204.91 ± 9.47^b ng/mL
- Time to achieve plasma peak (Tmax) [4, 20]: 3.00 h
- Elimination of Half-life time (t1/2) [4, 21]: 3.71 ± 0.29^b h
- Elimination rate constant (ke) [4, 21]: 0.214 ± 0.009^b h-1
- Plasma Peak Concentration (Cmax) [4, 21]: 290.09 ± 9.84^c ng/mL
- Time to achieve plasma peak (Tmax) [4, 21]: 3.00 h
SMILES: CC(C)=CCC/C(C)=C/CC/C(C)=C/CC[C@]1(C)CCc2c(C)c(O)c(C)c(C)c2O1 [α-Tocotrienol]
- α-TTP mediated secretion from the liver into the circulatory system (affinity with α-TTP) [5]: 12%
